# Test results as given in patent US20240319166A1, “Genetically-encoded volatile synthetic biomarkers for breath-based cancer detection” (The Board of Trustees of the Leland Stanford Junior …, priority 2021, published 2024).
# Assays:
# [1] = cited from earlier work
# [2] = Quantitation of limonene evolution from limonene-injected mice (closed chamber, SIFT-MS); format: in vivo
# Experimental: Having observed robust limonene expression in transfected HeLa cells in culture, the feasibility of detecting limonene in exhaled breath from rodents was then tested. A standard curve relating limonene concentration in chamber headspace to the quantity of limonene spiked into 0.5-L chambers was generated. To determine the fraction of limonene in mice that was emitted into the headspace, mice were injected intraperitoneally with different quantities of a limonene standard solution (from 0.01 μg to 1 mg) and individual mice were placed in a closed chamber for 15 minutes, at which point headspace limonene concentrations were measured by SIFT-MS (FIG. 4A and FIG. 4B).
# Using the standard curve, the mass of limonene exhaled by mice at each quantity injected was determined and the fraction exhaled was calculated. At the LOD (0.5 ppb), limonene in the chamber headspace became detectable when 2.3 ng had been spiked into the chamber, whereas limonene evolving from mice only became detectable at an injected dose of 450 ng (FIG. 4B, Supplementary Calculations shown in Example 2, infra). […]
# Prior to mouse studies, a calibration curve was generated. Known limonene quantities (10 μg to 100 μg) were added to 10 mL of water in […] (Kent Scientific, Torrington, CT). […]
structure (smiles),measurement,setting,value
C=C(C)[C@H]1CC=C(C)CC1 [limonene],safe oral dose,[1],≤ 100 mg/kg
same,safe oral dose for an average 70 kg adult,[1],~7 g
same,fraction of injected limonene emitted into the chamber headspace,"[2]; intraperitoneal injection, 0.5-L chamber, within 15 minutes",~0.5%
same,injected dose at which limonene evolving from mice became detectable,"[2]; intraperitoneal, at the LOD (0.5 ppb), 15 minutes",450 ng
